Experimental findings from PMC5522084, “Eg5 inhibitor YL001 induces mitotic arrest and inhibits tumor proliferation” (Oncotarget, 2017) are described below.

What is called EC50 is the concentration at which the effect is half-maximal. Usually Kd stands for the constant that tells how readily two partners part at equilibrium. A word on the half-life: it is the time in which the quantity being followed falls by half. A high value points to slow loss.

Data set [1] concerns A549. The data set is described as follows: Antiproliferation assay (Alamar Blue), A549. Type of data set: cell-based. The following applies: Homo sapiens; A549, lung cancer; read-out: EC50 of YL001. How it is done: (§1) Cytotoxic activities of the compounds of interest were investigated with human cancer cell lines using the Alamar Blue assay. Cells (5 × 10^3 cells/well) were seeded into 96-well plates (Corning, 3603). Various sample concentrations (compounds of interest) were added to each well in duplicate, and incubated at 37°C with 5% CO2 for two days such that cells were in the exponential growth phase at the time of drug addition. Ten microliters of the Alamar Blue Solution (Invitrogen, Alamar Blue) were added to each well and incubated at 37°C for up to 2 hours in a humidified, 5% CO2 atmosphere. After incubation, florescence was measured using a microplate reader (Tecan) at an excitation wavelength of 540 nm and emission of 590 nm. Each inhibitory concentration was measured in triplicate, and averaged data points ± SD are shown. Statistical analysis was carried out with GraphPad Prism 5 and the fifty-percent effective concentration is expressed as EC50.

Data set [2] deals with HCT116. The data set is described as follows: Antiproliferation assay (Alamar Blue), HCT116. Type of data set: cell-based. To be noted: Homo sapiens, HCT-116; HCT116, colon cancer; read-out: EC50 of YL001. How it is done: as §1
(In general: Alamar Blue is a resazurin reagent that responds to reducing activity.)

Data set [3] relates to HeLa. The data set is described as follows: Antiproliferation assay (Alamar Blue), HeLa. Format: cell-based. The following applies: Homo sapiens, 48 h, HeLa cell line, two days. How it is done:
as §1

For data set [4], the target named is T1, Eg5 motor domain (Homo sapiens, UniProt P52732).
T1 sequence (P52732 18-359 limits assumed): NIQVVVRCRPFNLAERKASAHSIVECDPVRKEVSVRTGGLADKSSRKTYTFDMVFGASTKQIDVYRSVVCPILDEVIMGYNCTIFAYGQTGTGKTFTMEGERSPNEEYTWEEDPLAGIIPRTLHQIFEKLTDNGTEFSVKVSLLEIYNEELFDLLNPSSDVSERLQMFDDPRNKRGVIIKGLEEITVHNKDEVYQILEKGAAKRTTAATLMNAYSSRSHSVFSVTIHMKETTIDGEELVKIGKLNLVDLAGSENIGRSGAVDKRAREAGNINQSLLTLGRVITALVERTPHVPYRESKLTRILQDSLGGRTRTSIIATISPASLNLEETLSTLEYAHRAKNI
The data set is described as follows: SPR assay (Biacore T200). Type of data set: binding. The following applies: SPR Biacore T200, 25°C. How it is done: Interactions of the Eg5 motor domain and compounds of interest were analyzed using the Biacore T200 system (GE Healthcare, Uppsala, Sweden) at 25°C. Eg5 motor protein obtained as previously described (51) was immobilized on a sensor chip (CM5) using an amine coupling kit (GE Healthcare, Buckinghamshire, UK). […] For binding studies, analytes were applied at corresponding concentrations in running buffer at a flow rate of 30 μL/minute with a contact time of 60 seconds and a dissociation time of 60 seconds. Chip platforms were washed with running buffer and 50% DMSO. Data were analyzed with Biacore evaluation software (T200 Version 1.0) by curve fitting using a steady state 1:1 binding model and a kinetic model.
(In general: Surface plasmon resonance follows binding to a sensor surface in real time, without labels.)

In data set [5] the test system is U87. The data set is described as follows: Antiproliferation assay (Alamar Blue), U87. Format: cell-based. To be noted: Homo sapiens, U-87 MG; U87, brain cancer; read-out: EC50 of YL001. How it is done: as §1
Data set [6] has as its system Huh7. Description: Antiproliferation assay (Alamar Blue), Huh7. Format: cell-based. The following applies: Homo sapiens, Huh-7; Huh7, liver cancer; read-out: EC50 of YL001. How it is done: as §1
The test system of data set [7] is AGS. Description: Antiproliferation assay (Alamar Blue), AGS. Type of data set: cell-based. To be noted: Homo sapiens, stomach cancer, read-out: EC50 of YL001. How it is done:
as §1

Data set [8] has as its system HeLa cells. Description: Monopolar spindle phenotype, high content imaging. Type of data set: cell-based. The following applies: Homo sapiens, 8 hours, analyzed with Columbus, read-out: EC50 for monopolar spindles. How it is done:
HeLa cells (5 × 10^3 cells/well) were seeded in 96-well plates (Corning, 3603). Drugs were diluted appropriately in medium from 10 mM stocks in 100% DMSO and added to the cells. Following 8 hours incubation with drugs, cells were fixed with 4% paraformaldehyde (20 minutes at room temperature), permeabilized with PBST (0.5% Triton X-100 in PBS) for 15 minutes, and washed before blocking. Cells were blocked with 4% BSA for at least 30 minutes at room temperature and stained with anti-β-tubulin monoclonal antibodies (Sigma) at 400-fold dilution for 1 hour with Alexafluor 488-conjugated goat anti-mouse secondary antibodies (Invitrogen) at 300-fold dilution for 1 hour. DNA was detected with 4′,6-diamidino-2-phenylindole dihydrochloride (DAPI). Actin was detected with Phalloidin. High content screening (Perkin Elmer Operetta) was used to photograph stained cells at 40× magnification, and Columbus software was used for statistical analysis of the percentage of mitotic cells with monopolar spindles present in treated cells over the total number of cells in mitosis counted after 8 hours incubation with drugs.

The nature of data set [9]: Pharmacokinetic study. The following applies: BALB/c nude, mouse, plasma, ip; 200 mg/kg intraperitoneally, single dose, HeLa xenograft nude mice. Type of data set: in vivo. How it is done: A HPLC-MS/MS method was developed for single-dose pharmacokinetic (PK) study of YL001 in HeLa xenograft BALB/c nude mice. YL001 was administered intraperitoneally at a dose of 200 mg/kg. Blood samples were then collected by enucleating eyeballs at 0.083, 0.167, 0.333, 0.5, 1, 2, 6, 12, 24 hours in heparinized polypropylene tubes. Three mice were sacrificed at each time point. Samples were centrifuged immediately at 4000 r/min for 20 min to separate plasma. The final sample for HPLC-MS/MS detection by QTRAP 6500 (AB Sciex, USA) was a mixture (plasma: H2O: methanol = 1:1:8). All individual data were pooled together to further perform PK analysis. DAS 2.1.2 were used to estimate PK parameters by non-compartmental analysis.

The test system of data set [10] is HCT 116. The data set is described as follows: Cell cycle analysis by flow cytometry. Format: cell-based, Human. The following applies: HCT 116, 8 hours treatment with 50 μM.
Data set [11] is described as follows: Nucleophilic addition assay. The following applies: incubated with cysteine and lysine for 24 hours at 37°C. How it is done: 0.5 mmol YL001 was solved in a solution of THF/H2O (v:v = 1:1) and stirred with nucleophiles (0.5 mmol L-cysteine or L-lysine) at 37°C for 24 hours. Products were then validated by HRMS.
The subject of data set [12] is HT1080. The data set is described as follows: Antiproliferation assay (Alamar Blue), HT1080. The following applies: read-out: EC50 of YL001. Type of data set: cell-based, Human. How it is done:
as §1

Where two headings read alike, the source gives them in different places.

For `Cc1ccc(-n2nnnc2/C(=C/N(C)C)C(=O)c2cccc(C(F)(F)F)c2)cc1` [YL001, (Z)-3-(dimethylamino)-2-(1-(p-tolyl)-1H-tetrazol-5-yl)-1-(3-(trifluoromethyl)phenyl)prop-2-en-1-one], the 50% effective concentration (EC50) in data set [1] is 22.8 ± 0.72 µM; in data set [2], 9.04 ± 2.19 µM; in data set [3], 14.3 ± 0.78 µM; in data set [5], 26.2 ± 0.12 µM; in [6], 14.6 ± 0.82 µM; in [7], 20.2 ± 0.01 µM. For the same compound, the 50% effective concentration (EC50) in [8] was 15.3 µM; in [12] (HT1080, fibrosarcoma), 76.2 ± 0.77 µM; in [12] (Homo sapiens, HT-1080, HT1080, fibrosarcoma), more than 70 µM. Also, in [4], binding was characterised by a dissociation constant (Kd) of 0.133 µM. Also, the half-life in data set [9] is 5.3 h. In [10], the “percentage of cells with 4N DNA content” value is recorded as “over 80%”. The “reaction with nucleophiles (new products by HRMS)” value in data set [11] was “no new products were detected”.
